Laboratory results: US7700638B2, “1,5,7-trisubstituted benzimidazole derivatives and their use for modulating the GABAA receptor complex” (N. V. Organon, priority 2003, dated 2010)
Counter-ions that a name gives are not always drawn.

Molecular target: GABA recognition site and the benzodiazepine modulatory unit (GABAA receptor complex), cerebral cortex membranes
Assay: In vitro inhibition of 3H-flunitrazepam (3H-FNM) binding
Design: species or system rat
Settings: inhibition of specific binding of 3H-FNM (1 nM), cerebral cortex membranes from male Wistar rats, 40 min at 2° C.
Description: In vitro Inhibition of ^3H-flunitrazepam (^3H-FNM) Binding
The GABA recognition site and the benzodiazepine modulatory unit can selectively be labelled with ^3H-flunitrazepam.
Preparations are performed at 0-4° C. unless otherwise indicated. Cerebral cortex from male Wistar rats (150-200 g) is homogenised for 5-10 sec in 20 ml […] (30 mM, pH 7.4) using an Ultra-Turrax homogeniser. The suspension is centrifuged at 27,000×g for 15 min and the pellet is washed three times with buffer (centrifuged at 27,000×g for 10 min). The washed pellet is homogenized in 20 ml of buffer and incubated on a water bath (37° C.) for 30 min to remove endogenous GABA and then centrifuged for 10 min at 27,000×g. The pellet is then homogenized in buffer and centrifuged for 10 min at 27,000×g. The final pellet is resuspended in 30 ml buffer and the preparation is frozen and stored at −20° C.
The membrane preparation is thawed and centrifuged at 2° C. for 10 min at 27,000×g. The pellet is washed twice with 20 ml 50 mM Tris-citrate, pH 7.1 using an Ultra-Turrax homogeniser and centrifuged for 10 min at 27,000×g. The final pellet is resuspended in 50 mM Tris-citrate, pH 7.1 (500 ml buffer per g of original tissue), and then used for binding assays. Aliquots of 0.5 ml tissue are added to 25 μl of test solution and 25 μl of ^3H-FNM (1 nM, final concentration), mixed and incubated for 40 min at 2° C. Non-specific binding is determined using Clonazepam (1 μM, final concentration). After incubation the samples are added 5 ml of ice-cold buffer and poured directly onto Whatman GF/C glass fibre filters under suction and immediately washed with 5 ml ice-cold buffer. The amount of radioactivity on the filters is determined by conventional liquid scintillation counting. Specific binding is total binding minus non-specific binding.
25-75% inhibition of specific binding must be obtained, before calculation of an IC50.
The test value will be given as IC50 (the concentration (μM) of the test substance which inhibits the specific binding of ^3H-FNM by 50%).
Co is specific binding in control assays, and
Cx is the specific binding in the test assay.
(The calculations assume normal mass-action kinetics).

`N#Cc1cccc(C=Nc2cc(C(F)(F)F)cc3ncn(-c4ccccc4)c23)c1` [Example 10, 7-(N-(3-cyanobenzylidene)amino)-1-phenyl-5-trifluoromethylbenzimidazole] gave an IC50 of 18 nM.
Work on `CCN(CC)C(=O)C=Cc1cc(C(F)(F)F)cc2ncn(-c3ccccc3)c12` [Example 65, N,N-Diethyl-3-(3-phenyl-6-trifluoromethyl-3H-benzimidazol-4-yl)acrylamide] yielded an IC50 of 20 nM.
For `FC(F)(F)c1cc(C#CCN2CC=CCC2)c2c(c1)ncn2-c1ccccc1` [Example 92, 1-Phenyl-7-(3-(1-(1,2,3,6-tetrahydropyridinyl))prop-1-ynyl)-5-trifluoromethylbenzimidazole], the IC50 was 48 nM.
`OCc1cccc(-c2cc(C(F)(F)F)cc3ncn(-c4ccccc4)c23)c1` [Example 12, 7-(3-(Hydroxymethyl)phenyl)-1-phenyl-5-trifluoromethylbenzimidazole] was tested, and the IC50 was 30 nM.
`CN(CCC#N)CCCCc1cc(C(F)(F)F)cc2ncn(-c3ccccc3)c12` [Example 88, 7-(4-((N-(2-Cyanoethyl)-N-methyl)amino)-1-butyl)-1-phenyl-5-trifluoromethylbenzimidazole trifluoroacetic acid salt] was tested, and the IC50 was 100 nM.
With “7-[1-(3-Dimethylamino)pyrrolidinyl]-1-phenyl-5-trifluoromethylbenzimidazole trifluoroacetic acid salt [Example 94]” the IC50 was 90 nM.
`FC(F)(F)c1cc(C#CCN2CCOCC2)c2c(c1)ncn2-c1ccccc1` [Example 80, 7-(3-(4-Morpholino)prop-1-ynyl)-1-phenyl-5-trifluoromethylbenzimidazole trifluoroacetic acid salt] gave an IC50 of 180 nM.
`CCOC(=O)c1cc(-c2cccc(CN3CCN(C)CC3)c2)c2c(c1)ncn2-c1ccccc1` [Example 33, 5-Ethoxycarbonyl-7-(3-((1-methylpiperazin-4-yl)methyl)phenyl)-1-phenylbenzimidazole] gave an IC50 of 19 nM.
Work on `CCN(CC)Cc1ccc(-c2cc(C#N)cc3ncn(-c4ccccc4)c23)cc1` [Example 41, 5-Cyano-7-(4-diethylaminomethylphenyl)-1-phenylbenzimidazole trifluoroacetic acid salt] yielded an IC50 of 27 nM.
`CCN(CC)C(=O)CCc1cc(C(F)(F)F)cc2ncn(-c3ccccc3)c12` [Example 81, N,N-Diethyl-3-(3-Phenyl-6-trifluoromethyl-3H-benzimidazol-4-yl)propionamide] was tested, and the IC50 was 38 nM.
Work on `COC(=O)C=Cc1cc(C(F)(F)F)cc2ncn(-c3ccccc3)c12` [Example 57, 3-(3-Phenyl-6-trifluoromethyl-3H-benzimidazol-4-yl)acrylic acid methyl ester] yielded an IC50 of 46 nM.
In the case of `COc1ccc(-c2cc(C#N)cc3ncn(-c4ccccc4)c23)cc1` [Example 23, 5-Cyano-7-(4-methoxyphenyl)-1-phenylbenzimidazole], the IC50 is reported as 38 nM.
In the case of `OCc1cc(-c2cccc(OC(F)(F)F)c2)c2c(c1)ncn2-c1ccccc1` [Example 51, 5-(Hydroxymethyl)-1-phenyl-7-(3-trifluoromethoxyphenyl)benzimidazole], the IC50 is reported as 12 nM.
`Nc1cccc(-c2cc(C=NO)cc3ncn(-c4ccccc4)c23)c1` [Example 6, 7-(3-Aminophenyl)-5-formyl-1-phenylbenzimidazole oxime] gave an IC50 of 4.2 nM.
